# Results reported in article PMC11233931, “Remodeling tumor‐associated macrophage for anti‐cancer effects by rational design of irreversible inhibition of mitogen‐activated protein kinase‐activated protein kinase 2” (MedComm, 2024).
# Experiments:
# Assay in all cases: Eurofins kinase selectivity profile against 380 other human recombinant kinases (Table S2)
# Assay type in all cases: biochemical
# [1] = biological target: T1, 380 human recombinant protein kinases (Homo sapiens, UniProt P06241); conditions: Fyn(h), read-out: Inhibition rate
# T1 construct: purchased Eurofins (Celle Lévescault)
# T1 sequence (P06241 whole entry): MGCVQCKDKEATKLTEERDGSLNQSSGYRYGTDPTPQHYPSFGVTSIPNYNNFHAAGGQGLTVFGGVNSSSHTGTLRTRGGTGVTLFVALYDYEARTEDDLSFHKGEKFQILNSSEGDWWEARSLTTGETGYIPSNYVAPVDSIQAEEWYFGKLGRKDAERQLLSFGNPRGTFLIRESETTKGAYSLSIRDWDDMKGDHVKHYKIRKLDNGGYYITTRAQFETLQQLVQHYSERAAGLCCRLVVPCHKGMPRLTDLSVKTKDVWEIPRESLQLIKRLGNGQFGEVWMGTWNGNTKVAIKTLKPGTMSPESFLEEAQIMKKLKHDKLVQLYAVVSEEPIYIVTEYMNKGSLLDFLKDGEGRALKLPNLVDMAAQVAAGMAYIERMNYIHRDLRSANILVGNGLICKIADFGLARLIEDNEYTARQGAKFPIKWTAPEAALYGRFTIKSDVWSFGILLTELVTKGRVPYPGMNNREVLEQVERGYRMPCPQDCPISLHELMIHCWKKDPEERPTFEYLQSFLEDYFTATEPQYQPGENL
# Summary of the method: (§1)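 Selectivity panel of 380 human recombinant protein kinases, screened by Eurofins at a range of concentrations.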
# [2] = biological target: T2, 380 human recombinant protein kinases (Homo sapiens, UniProt P22694); conditions: PKAcβ(h), read-out: Inhibition rate
# T2 construct: purchased Eurofins (Celle Lévescault)
# Summary of the method: as §1
# [3] = biological target: T3, 380 human recombinant protein kinases (Homo sapiens, UniProt P53667); conditions: LIMK1(h), read-out: Inhibition rate
# T3 construct: purchased Eurofins (Celle Lévescault)
# T3 sequence (P53667 whole entry): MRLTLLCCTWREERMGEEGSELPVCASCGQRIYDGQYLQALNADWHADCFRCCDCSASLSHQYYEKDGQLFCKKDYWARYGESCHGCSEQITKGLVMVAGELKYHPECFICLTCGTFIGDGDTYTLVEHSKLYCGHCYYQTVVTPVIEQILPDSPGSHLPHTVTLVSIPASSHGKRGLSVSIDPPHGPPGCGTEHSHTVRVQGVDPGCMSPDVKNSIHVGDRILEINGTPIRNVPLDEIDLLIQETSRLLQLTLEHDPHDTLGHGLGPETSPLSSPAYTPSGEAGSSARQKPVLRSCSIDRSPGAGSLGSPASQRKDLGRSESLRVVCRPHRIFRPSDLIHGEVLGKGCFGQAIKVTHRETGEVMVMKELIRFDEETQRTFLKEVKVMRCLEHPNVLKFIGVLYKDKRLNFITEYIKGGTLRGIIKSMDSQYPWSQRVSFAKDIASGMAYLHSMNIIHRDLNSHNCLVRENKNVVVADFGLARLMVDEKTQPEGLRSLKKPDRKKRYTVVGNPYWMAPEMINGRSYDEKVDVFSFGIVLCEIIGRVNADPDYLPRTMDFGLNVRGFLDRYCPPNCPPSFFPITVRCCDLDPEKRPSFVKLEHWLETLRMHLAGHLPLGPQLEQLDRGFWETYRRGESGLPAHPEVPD
# Summary of the method: as §1
# [4] = biological target: T4, 380 human recombinant protein kinases (Homo sapiens, UniProt P07332); conditions: Fes(h), read-out: Inhibition rate
# T4 construct: purchased Eurofins (Celle Lévescault)
# T4 sequence (P07332 whole entry): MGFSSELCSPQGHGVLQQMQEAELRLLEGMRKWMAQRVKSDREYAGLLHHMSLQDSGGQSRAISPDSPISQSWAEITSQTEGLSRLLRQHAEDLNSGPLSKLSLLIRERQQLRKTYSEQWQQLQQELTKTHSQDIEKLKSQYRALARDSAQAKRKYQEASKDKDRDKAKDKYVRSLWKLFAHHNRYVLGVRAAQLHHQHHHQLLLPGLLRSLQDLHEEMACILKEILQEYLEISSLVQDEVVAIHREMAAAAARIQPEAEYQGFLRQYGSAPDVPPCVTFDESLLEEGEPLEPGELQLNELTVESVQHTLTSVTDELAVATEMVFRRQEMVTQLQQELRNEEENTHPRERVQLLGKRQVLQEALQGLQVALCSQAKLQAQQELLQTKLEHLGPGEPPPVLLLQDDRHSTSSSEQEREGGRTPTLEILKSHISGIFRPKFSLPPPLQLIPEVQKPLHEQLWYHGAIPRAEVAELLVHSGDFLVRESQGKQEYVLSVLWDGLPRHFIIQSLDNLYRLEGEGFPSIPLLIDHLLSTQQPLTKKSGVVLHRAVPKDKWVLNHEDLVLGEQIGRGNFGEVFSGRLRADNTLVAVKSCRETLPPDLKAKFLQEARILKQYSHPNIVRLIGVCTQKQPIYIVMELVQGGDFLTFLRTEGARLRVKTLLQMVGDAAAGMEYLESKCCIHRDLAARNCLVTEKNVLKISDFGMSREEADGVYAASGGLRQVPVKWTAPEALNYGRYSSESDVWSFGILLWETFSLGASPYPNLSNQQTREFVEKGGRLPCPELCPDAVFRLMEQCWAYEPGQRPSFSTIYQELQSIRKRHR
# Summary of the method: as §1
# [5] = biological target: T5, 380 human recombinant protein kinases (Homo sapiens, UniProt Q15375); conditions: EphA7(h), read-out: Inhibition rate
# T5 construct: purchased Eurofins (Celle Lévescault)
# T5 sequence (Q15375 28-998): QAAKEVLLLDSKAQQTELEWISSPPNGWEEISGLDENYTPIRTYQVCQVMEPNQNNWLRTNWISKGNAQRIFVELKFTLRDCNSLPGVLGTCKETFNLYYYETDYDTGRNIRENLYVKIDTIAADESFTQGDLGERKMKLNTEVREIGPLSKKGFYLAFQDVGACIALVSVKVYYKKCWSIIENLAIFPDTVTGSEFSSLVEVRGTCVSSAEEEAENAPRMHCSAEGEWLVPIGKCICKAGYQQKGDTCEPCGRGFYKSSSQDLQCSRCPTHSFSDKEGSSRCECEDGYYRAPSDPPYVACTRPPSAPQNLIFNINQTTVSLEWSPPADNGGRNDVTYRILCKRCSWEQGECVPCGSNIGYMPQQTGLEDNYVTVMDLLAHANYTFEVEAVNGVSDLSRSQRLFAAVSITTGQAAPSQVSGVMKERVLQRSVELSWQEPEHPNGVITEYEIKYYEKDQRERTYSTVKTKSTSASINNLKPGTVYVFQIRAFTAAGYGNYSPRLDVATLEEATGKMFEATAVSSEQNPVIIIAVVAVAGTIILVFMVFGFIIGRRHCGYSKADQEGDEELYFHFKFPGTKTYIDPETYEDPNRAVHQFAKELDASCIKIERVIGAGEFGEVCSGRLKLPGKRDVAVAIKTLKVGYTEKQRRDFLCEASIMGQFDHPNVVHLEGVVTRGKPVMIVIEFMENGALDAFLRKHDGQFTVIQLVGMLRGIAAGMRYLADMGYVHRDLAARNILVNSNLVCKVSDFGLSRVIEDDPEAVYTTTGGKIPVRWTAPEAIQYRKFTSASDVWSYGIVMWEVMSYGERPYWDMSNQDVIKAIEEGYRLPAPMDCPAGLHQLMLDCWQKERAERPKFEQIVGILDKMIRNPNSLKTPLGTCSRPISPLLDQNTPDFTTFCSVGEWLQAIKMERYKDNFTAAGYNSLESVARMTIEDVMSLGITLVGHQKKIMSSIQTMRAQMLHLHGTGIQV
# Summary of the method: as §1
# [6] = biological target: T6, 380 human recombinant protein kinases (Homo sapiens, UniProt P48426); conditions: PIP4K2α(h), read-out: Inhibition rate (%)
# T6 construct: purchased Eurofins (Celle Lévescault)
# T6 sequence (P48426 1-406): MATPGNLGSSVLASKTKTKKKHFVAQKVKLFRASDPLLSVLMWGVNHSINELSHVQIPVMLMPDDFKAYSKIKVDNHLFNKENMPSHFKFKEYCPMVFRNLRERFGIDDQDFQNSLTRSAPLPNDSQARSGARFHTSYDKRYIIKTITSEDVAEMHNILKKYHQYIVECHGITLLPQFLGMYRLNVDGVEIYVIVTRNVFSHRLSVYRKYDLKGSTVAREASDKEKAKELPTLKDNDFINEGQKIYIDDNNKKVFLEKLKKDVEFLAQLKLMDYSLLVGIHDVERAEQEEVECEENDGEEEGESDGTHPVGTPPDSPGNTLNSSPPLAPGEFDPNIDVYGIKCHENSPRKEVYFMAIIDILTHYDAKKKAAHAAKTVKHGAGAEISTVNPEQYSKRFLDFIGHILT
# Summary of the method: as §1
# [7] = biological target: T7, 380 human recombinant protein kinases (Homo sapiens, UniProt P29597); conditions: TYK2(h), read-out: Inhibition rate (%)
# T7 construct: purchased Eurofins (Celle Lévescault)
# T7 sequence (P29597 whole entry): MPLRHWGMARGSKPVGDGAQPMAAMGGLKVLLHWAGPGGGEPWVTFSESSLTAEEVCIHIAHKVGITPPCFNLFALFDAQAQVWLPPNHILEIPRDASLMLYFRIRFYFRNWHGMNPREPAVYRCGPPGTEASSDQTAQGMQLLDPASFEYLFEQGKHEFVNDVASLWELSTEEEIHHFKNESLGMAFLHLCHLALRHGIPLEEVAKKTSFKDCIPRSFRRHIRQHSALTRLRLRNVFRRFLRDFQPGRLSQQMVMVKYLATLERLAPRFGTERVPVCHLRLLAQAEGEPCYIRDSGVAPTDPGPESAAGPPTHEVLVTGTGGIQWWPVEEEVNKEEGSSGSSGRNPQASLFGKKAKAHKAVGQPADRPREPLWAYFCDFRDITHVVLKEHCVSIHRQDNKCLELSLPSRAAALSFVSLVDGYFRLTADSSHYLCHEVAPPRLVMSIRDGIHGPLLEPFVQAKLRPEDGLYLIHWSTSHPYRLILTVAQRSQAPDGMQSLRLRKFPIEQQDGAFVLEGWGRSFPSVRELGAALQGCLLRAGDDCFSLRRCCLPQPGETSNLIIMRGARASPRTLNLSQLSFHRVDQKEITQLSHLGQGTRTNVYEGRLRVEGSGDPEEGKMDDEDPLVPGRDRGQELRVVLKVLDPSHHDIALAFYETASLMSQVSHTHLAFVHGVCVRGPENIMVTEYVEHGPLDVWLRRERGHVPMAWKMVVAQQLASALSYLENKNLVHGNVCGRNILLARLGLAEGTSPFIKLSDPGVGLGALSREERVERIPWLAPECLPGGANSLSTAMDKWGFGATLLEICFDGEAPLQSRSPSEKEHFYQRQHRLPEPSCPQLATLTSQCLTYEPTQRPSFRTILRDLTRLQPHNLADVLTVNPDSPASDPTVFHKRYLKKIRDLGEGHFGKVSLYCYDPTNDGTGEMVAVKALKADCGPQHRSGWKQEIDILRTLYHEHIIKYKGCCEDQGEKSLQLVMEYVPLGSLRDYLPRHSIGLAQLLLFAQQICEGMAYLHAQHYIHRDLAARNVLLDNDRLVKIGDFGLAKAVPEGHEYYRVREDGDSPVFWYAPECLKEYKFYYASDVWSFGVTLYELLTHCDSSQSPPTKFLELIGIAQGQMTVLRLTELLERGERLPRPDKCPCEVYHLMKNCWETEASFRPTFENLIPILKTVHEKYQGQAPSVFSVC
# Summary of the method: as §1
# [8] = biological target: T8, 380 human recombinant protein kinases (Homo sapiens, UniProt O60285); conditions: ARK5(h), read-out: Inhibition rate
# T8 construct: purchased Eurofins (Celle Lévescault)
# T8 sequence (O60285 1-661): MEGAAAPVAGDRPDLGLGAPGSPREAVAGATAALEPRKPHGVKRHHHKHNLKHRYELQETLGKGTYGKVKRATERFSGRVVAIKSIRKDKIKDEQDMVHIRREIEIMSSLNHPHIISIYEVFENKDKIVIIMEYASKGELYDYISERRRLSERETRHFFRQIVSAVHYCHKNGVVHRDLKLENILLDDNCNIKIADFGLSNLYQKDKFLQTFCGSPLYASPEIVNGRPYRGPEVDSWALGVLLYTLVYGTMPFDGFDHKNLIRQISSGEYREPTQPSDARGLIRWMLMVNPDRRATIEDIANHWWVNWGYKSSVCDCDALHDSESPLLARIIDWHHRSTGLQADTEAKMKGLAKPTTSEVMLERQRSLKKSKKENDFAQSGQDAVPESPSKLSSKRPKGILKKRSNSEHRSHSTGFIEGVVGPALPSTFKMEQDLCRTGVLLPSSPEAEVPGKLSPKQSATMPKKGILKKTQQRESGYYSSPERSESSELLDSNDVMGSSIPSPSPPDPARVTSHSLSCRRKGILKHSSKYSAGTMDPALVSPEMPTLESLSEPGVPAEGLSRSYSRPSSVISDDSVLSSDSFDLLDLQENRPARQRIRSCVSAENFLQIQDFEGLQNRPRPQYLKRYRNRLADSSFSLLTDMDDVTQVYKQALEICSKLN
# Summary of the method: as §1
# [9] = biological target: T9, 380 human recombinant protein kinases (Homo sapiens, UniProt P00519, T315I); conditions: Abl(T315I)(h), read-out: Inhibition rate
# T9 construct: purchased Eurofins (Celle Lévescault)
# Summary of the method: as §1
# [10] = biological target: T10, 380 human recombinant protein kinases (Homo sapiens, UniProt Q6P2M8); conditions: CaMKIß(h), read-out: Inhibition rate
# T10 construct: purchased Eurofins (Celle Lévescault)
# T10 sequence (Q6P2M8 whole entry): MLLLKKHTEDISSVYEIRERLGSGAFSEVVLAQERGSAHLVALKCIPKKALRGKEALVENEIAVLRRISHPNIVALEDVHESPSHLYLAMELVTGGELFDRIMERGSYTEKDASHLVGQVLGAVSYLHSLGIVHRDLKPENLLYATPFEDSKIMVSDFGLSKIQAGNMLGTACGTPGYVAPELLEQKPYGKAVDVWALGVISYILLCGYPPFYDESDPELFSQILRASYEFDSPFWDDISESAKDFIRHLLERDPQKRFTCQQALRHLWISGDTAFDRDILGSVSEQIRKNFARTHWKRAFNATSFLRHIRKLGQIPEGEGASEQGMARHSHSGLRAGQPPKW
# Summary of the method: as §1
# [11] = biological target: T11, 380 human recombinant protein kinases (Homo sapiens, UniProt O94768); conditions: DRAK2(h), read-out: Inhibition rate
# T11 construct: purchased Eurofins (Celle Lévescault)
# T11 sequence (O94768 1-372): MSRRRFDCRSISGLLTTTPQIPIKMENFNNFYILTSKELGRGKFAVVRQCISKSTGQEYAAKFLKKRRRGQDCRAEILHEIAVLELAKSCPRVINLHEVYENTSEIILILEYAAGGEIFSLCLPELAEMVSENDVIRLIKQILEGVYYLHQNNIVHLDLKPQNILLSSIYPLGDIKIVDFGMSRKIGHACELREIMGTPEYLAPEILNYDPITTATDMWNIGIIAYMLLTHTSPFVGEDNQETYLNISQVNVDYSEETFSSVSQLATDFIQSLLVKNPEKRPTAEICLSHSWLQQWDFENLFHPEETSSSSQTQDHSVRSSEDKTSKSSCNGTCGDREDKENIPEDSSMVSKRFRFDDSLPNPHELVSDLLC
# Summary of the method: as §1
smiles,measurement,setting,value
C=CC(=O)Nc1cc(-c2cc(-c3cc4c([nH]3)CCNC4=O)ccn2)ccc1OC(F)(F)F [compound 11],inhibition at 0.01 µM,[1]; 10 nM,0%
same,inhibition at 0.1 µM,[1]; 100 nM,0%
same,inhibition at 1 µM,[1]; 1000 nM,3%
same,inhibition at 0.01 µM,[2]; 10 nM,-11%
same,inhibition at 0.1 µM,[2]; 100 nM,-4%
same,inhibition at 1 µM,[2]; 1000 nM,5%
same,inhibition at 0.01 µM,[3]; 10 nM,-5%
same,inhibition at 0.1 µM,[3]; 100 nM,-2%
same,inhibition at 1 µM,[3]; 1000 nM,-2%
same,inhibition at 0.01 µM,[4]; 10 nM,-7%
same,inhibition at 0.1 µM,[4]; 100 nM,-5%
same,inhibition at 1 µM,[4]; 1000 nM,0%
same,inhibition at 0.01 µM,[5]; 10 nM,3%
same,inhibition at 0.1 µM,[5]; 100 nM,-3%
same,inhibition at 1 µM,[5]; 1000 nM,-11%
same,inhibition at 0.01 µM,[6]; 10 nM,-1%
same,inhibition at 0.1 µM,[6]; 100 nM,-3%
same,inhibition at 1 µM,[6]; 1000 nM,-1%
same,inhibition at 0.01 µM,[7]; 10 nM,1%
same,inhibition at 0.1 µM,[7]; 100 nM,10%
same,inhibition at 1 µM,[7]; 1000 nM,14%
same,inhibition at 0.01 µM,[8]; 10 nM,-2%
same,inhibition at 0.1 µM,[8]; 100 nM,14%
same,inhibition at 1 µM,[8]; 1000 nM,28%
same,inhibition at 0.01 µM,[9]; 10 nM,6%
same,inhibition at 0.1 µM,[9]; 100 nM,11%
same,inhibition at 1 µM,[9]; 1000 nM,31%
same,inhibition at 0.01 µM,[10]; 10 nM,-6%
same,inhibition at 0.1 µM,[10]; 100 nM,-2%
same,inhibition at 1 µM,[10]; 1000 nM,-2%
same,inhibition at 0.01 µM,[11]; 10 nM,28%
same,inhibition at 0.1 µM,[11]; 100 nM,80%
same,inhibition at 1 µM,[11]; 1000 nM,93%
